Experimental data published in publication PMC9000427, “Synthesis and Anti-Trypanosoma cruzi Biological Evaluation of Novel 2-Nitropyrrole Derivatives” (Molecules, 2022).
Values joined by “and” are separate entries in the source; they are usually repeats but may differ in a detail not shown here. Equal values may be shown once. Read-outs that look alike come from different tables or passages of the source.

Columns and labels:
[1] = tested on: T. cruzi X10/7 intracellular amastigotes; assay: T. cruzi intracellular assay (infected Vero cells, high-content imaging); format: cell-based, Trypanosoma cruzi
Description: The infected Vero cells were then plated into 384-well plates containing the compounds to be tested, at 4000 cells per well in MEM media with 1% FCS. […] The plates were imaged on a Perkin Elmer Operetta high-content imaging system using a 20× objective. Images were analysed using the Columbus system (Perkin Elmer).

[2] = tested on: Vero host cells; assay: Cytotoxicity against Vero host cells in the T. cruzi intracellular assay; format: cell-based; conditions: Chlorocebus sabaeus
Description: (§1) These new derivatives were evaluated in vitro against the intracellular T. cruzi strain X10/7-Silvio by determining their 50% efficacy concentration (EC50) and were compared to the reference anti-T. cruzi drug nifurtimox. The in vitro 50% cytotoxic concentrations (CC50) were assessed on the CHO cell line and compared to a cytotoxic reference drug, doxorubicin. In vitro cytotoxicity against vero host cells was also assessed (vero cells EC50).
Vero cells (ECCAC 84113001) were screened for mycoplasma infection and maintained in MEM medium supplemented with Glutamax (Life Technologies) and 10% (v/v) foetal calf serum (FCS) at 37 °C in the presence of 5% CO2. T. cruzi parasites (Silvio X10/7 A1), a clonal line kindly provided by Susan Wyllie and Prof. Alan Fairlamb were maintained in Vero cells. On a weekly basis, emerged trypomastigotes were used to infect a new Vero monolayer at the multiplicity of infection (MOI) 1.5 [32].
For the primary intracellular assay, the infection conditions were chosen so that no trypomastigote egress occurs during the compound incubation time. First, Vero cells were infected overnight with tissue culture-derived T. cruzi trypomastigotes in T225 tissue culture flasks (MOI 5).
Next, any remaining free trypomastigotes were washed away with serum-free MEM, and the infected Vero cells were harvested by trypsinisation. The infected Vero cells were then plated into 384-well plates containing the compounds to be tested, at 4000 cells per well in MEM media with 1% FCS. After 96h incubation at 37 °C in the presence of 5% CO2, the plates were fixed with 4% formaldehyde for 20 min at room temperature and stained with 5μg/mL Hoechst 33342. The plates were imaged on a Perkin Elmer Operetta high-content imaging system using a 20× objective. Images were analysed using the Columbus system (Perkin Elmer). The algorithm for the primary assay first identified the Vero nuclei followed by the demarcation of the cytoplasm and identification of intracellular amastigotes. This algorithm reported the mean number of parasites per Vero cell and the total number of Vero cells. The data analysis was as previously described.

[3] = in vitro; format: cell-based; conditions: Chinese hamster, CC50 CHO
Description: as §1
The toxicity of compounds towards Chinese hamster ovary cells (CHO-K1, ATCC CCL61) was evaluated by the NRU toxicity test, based on the concentration-dependent reduction of the uptake of the vital dye neutral red when measured 24 h after chemical treatment. Cells were grown in McCoy’s medium supplemented with Penicillin 100 IU/mL and streptomycin 100 μg/mL, and 10% of inactivated calf serum, and incubated at 37 °C in CO2 5% atmosphere. They were seeded into two 96-well tissue culture plates (0.1 mL per well), at a concentration of 1 × 10^5 cells/mL, and incubated at 37 °C (5% CO2) for 24 h, until confluent. The culture medium was decanted and replaced by 100 µL of fresh medium containing the appropriate concentrations of the compounds (eight different concentrations in triplicate), then cells were incubated at 37 °C (5% CO2) in the dark for 24 h. At the end of the incubation period, cells were washed, placed into neutral red medium (50 μg/mL neutral red in complete medium). This vital dye is a weak cationic dye that penetrates membranes of living cells by […] and accumulates intracellularly in lysosomes. On the contrary, alterations of the cell surface or metabolism result in a decreased uptake and binding of NR in non-viable cells. Cells were incubated for 3 h at 37°C, 5% CO2, and then the culture medium was removed, and cells were washed three times with 0.2 mL of PBS to remove excessive dye. Destaining solution (50% ethanol, 1% acetic acid, 49% distilled water; 50µL per well) was added into the wells, and the plates were shaken for 15–20 min at room temperature in the dark. The degree of cell viability was measured by a fluorescence–luminescence reader. The optical density (OD) of each well was read at 540 nm. The results obtained for wells treated with the test compounds were compared to those of untreated control wells (100% viability) and converted to percentage values. The mean OD value of blank wells (containing only neutral red desorbed solution) was subtracted from the mean OD value of three treated wells (dilutions of the test material, positive control or HBSS). The percentages of cell viability were calculated as:Viability (%) = (Mean OD of test wells-mean OD of blanks) × 100 / (Mean OD of negative control − mean OD of blanks)
The concentration of the test substances causing a 50% release of neutral red as compared to the control culture was calculated by non-linear regression analysis using software Phototox Version 2.0.

[4] = Trypanosoma cruzi, Vero, 96 h, intracellular T. cruzi strain X10/7-Silvio, 96h incubation, mean ± SD of two independent biological replicates, read-out: EC50 T. cruzi
[5] = Vero host cells, 96h incubation, concentrations up to 50 µM, read-out: Vero cells EC50
[6] = intracellular T. cruzi strain X10/7-Silvio, 96h incubation, mean ± SD of two independent biological replicates, read-out: EC50 T. cruzi
[7] = Trypanosoma cruzi, Vero, Replicate 1, dose response curve, read-out: pXC50 intracellular amastigotes (converted)
[8] = Trypanosoma cruzi, Vero, Replicate 2, dose response curve, read-out: pXC50 intracellular amastigotes (converted)
[9] = Replicate 1, inhibition of Vero host cell growth, read-out: C_pXC50 host cells

| Compound | melting point | EC50 [1, 4] | EC50 [2, 5] | CC50 at 24 h [3] | also measured |
| --- | --- | --- | --- | --- | --- |
| O=C(Cn1cccc1[N+](=O)[O-])NCc1ccccc1 [Compound 3, N-Benzyl-2-(2-nitro-1H-pyrrol-1-yl)acetamide] | 174 to 175 °C | 34.5 ± 21.9 µM | 42 ± 11.3 µM | 24.3 µM |  |
| O=C(Cn1cccc1[N+](=O)[O-])Nc1ccccc1 [Compound 4, 2-(2-Nitro-1H-pyrrol-1-yl)-N-phenylacetamide] | 201 to 202 °C | < 10 µM | 14 µM | 262 ± 3.9 µM | EC50 [1, 6]: 6 µM |
| O=C(Cn1cccc1[N+](=O)[O-])Nc1ccccc1Cl [Compound 17, N-(2-Chlorophenyl)-2-(2-nitro-1H-pyrrol-1-yl)acetamide] |  | 50 µM | > 50 µM | 198 ± 5.7 µM |  |
| O=C(Cn1cccc1[N+](=O)[O-])Nc1cccc(C(F)(F)F)c1 [Compound 18, 2-(2-Nitro-1H-pyrrol-1-yl)-N-[3-(trifluoromethyl)phenyl]acetamide] |  |  | > 50 µM | 156 ± 2.9 µM | maximum effect (percent inhibition of intracellular amastigotes) ([1]; 96h treatment, two independent replicates, normalised to DMSO (0%) and nifurtimox controls (100%)): 71%; Emax ([1]; Trypanosoma cruzi, Vero, 96 h, 96h treatment, two independent replicates, normalised to DMSO (0%) and nifurtimox controls (100%), read-out: maximum effect (percent inhibition of intracellular amastigotes)): 79%; EC50 [1, 7]: 2.29 µM; EC50 [1, 8]: 4.9 µM; EC50 [1, 6]: < 10 µM and 3.6 µM; EC50 [2, 9]: > 50.1 µM |
| COc1cccc(NC(=O)Cn2cccc2[N+](=O)[O-])c1 [Compound 19, N-(3-Methoxyphenyl)-2-(2-nitro-1H-pyrrol-1-yl)acetamide] |  | 50 µM | > 50 µM | 260 ± 6.3 µM |  |
| O=C(Cn1cccc1[N+](=O)[O-])NC1CCCC1 [Compound 21, N-Cyclopentyl-2-(2-nitro-1H-pyrrol-1-yl)acetamide] |  |  |  | 303 ± 6.1 µM |  |
| COc1cccc2c1C(=O)c1c(O)c3c(c(O)c1C2=O)C[C@@](O)(C(=O)CO)C[C@@H]3O[C@H]1C[C@H](N)[C@H](O)[C@H](C)O1 [Doxorubicin, reference compound] |  |  |  | 4.6 ± 0.08 µM |  |

Now from value to compound, other results behind:

| melting point | EC50 [1, 4] | Compound | EC50 [2, 5] | CC50 at 24 h [3] | also measured |
| --- | --- | --- | --- | --- | --- |
| 161 to 162 °C | 41 ± 12.7 µM | O=C(Cn1cccc1[N+](=O)[O-])NCc1cccc(C(F)(F)F)c1 [Compound 15, 2-(2-Nitro-1H-pyrrol-1-yl)-N-[3-(trifluoromethyl)benzyl]acetamide] | 43 ± 9.9 µM | 185 ± 5.1 µM |  |
|  | < 10 µM | O=C(Cn1cccc1[N+](=O)[O-])Nc1ccc(Br)cc1 [Compound 16, N-(4-Bromophenyl)-2-(2-nitro-1H-pyrrol-1-yl)acetamide] | 14.5 ± 0.7 µM | 173 ± 4.6 µM | EC50 [1, 6]: 6.5 ± 0.6 µM |
| 190 to 191 °C |  | CC(C)NC(=O)Cn1cccc1[N+](=O)[O-] [Compound 20, N-Isopropyl-2-(2-nitro-1H-pyrrol-1-yl)acetamide] |  | 321 ± 5.3 µM |  |
| 185 to 186 °C |  | O=C(Cn1cccc1[N+](=O)[O-])Nc1cc(F)ccc1Br [Compound 22, N-(2-Bromo-5-fluorophenyl)-2-(2-nitro-1H-pyrrol-1-yl)acetamide] |  | 188 ± 4.4 µM |  |
|  | 2.1 ± 0.2 µM | CC1CS(=O)(=O)CCN1/N=C/c1ccc([N+](=O)[O-])o1 (centres unmarked) [Nifurtimox, reference compound] |  |  | EC50 [1, 7]: 2.04 µM; EC50 [1, 8]: 2.04 µM; EC50 [2, 9]: > 15.8 µM |
